For 30 compounds, Ki results are on record in patent US7253187B2, “Heterocyclic inhibitors of ERK2 and uses thereof” (Vertex Pharmaceuticals Incorporated, priority 2001, dated 2007).

For orientation: Ki means the equilibrium dissociation constant of an inhibitor or competing ligand from its target.

Each structure is given as a SMILES string.

ERK2, sequence (P28482 whole entry): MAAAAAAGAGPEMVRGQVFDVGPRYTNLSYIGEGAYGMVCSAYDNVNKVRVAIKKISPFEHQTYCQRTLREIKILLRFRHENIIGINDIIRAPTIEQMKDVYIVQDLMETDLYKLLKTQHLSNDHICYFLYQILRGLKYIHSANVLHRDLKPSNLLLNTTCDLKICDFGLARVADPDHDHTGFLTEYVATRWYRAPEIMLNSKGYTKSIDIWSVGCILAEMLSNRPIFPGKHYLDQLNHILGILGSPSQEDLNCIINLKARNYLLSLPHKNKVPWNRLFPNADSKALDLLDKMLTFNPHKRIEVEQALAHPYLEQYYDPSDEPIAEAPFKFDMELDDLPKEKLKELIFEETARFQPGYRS

One assay deals with ERK2 (Homo sapiens, UniProt P28482). Kind of assay: ERK2 inhibition assay (spectrophotometric coupled-enzyme assay). The class given is biochemical. The following applies: ERK2 Inhibitory Activity (Ki class D-F). On the procedure:
The IC50 was evaluated from the rate data as a function of inhibitor concentration. […] The compound numbers correspond to the compound numbers in Table 1.
The compound `Cc1cnc(Nc2nc(N3CCCCC3)nc3ccccc23)nc1-c1c[nH]c(C(=O)NCc2ccccc2)c1` [III-a-133, 4-[5-Methyl-2-(2-piperidin-1-yl-quinazolin-4-ylamino)-pyrimidin-4-yl]-1H-pyrrole-2-carboxylic acid benzylamide] showed a Ki of more than 1000 nM.

Staying with this assay, now noted: read-out: ERK2 Inhibitory Activity (Ki class D-F).
Take `O=C(NCc1ccc2c(c1)OCO2)c1cc(-c2nc(Nc3ccccc3)ncc2-c2cc(Cl)cc(Cl)c2)c[nH]1` [III-a-103, 4-[5-(3,5-Dichloro-phenyl)-2-phenylamino-pyrimidin-4-yl]-1H-pyrrole-2-carboxylic acid (benzo[1,3]dioxol-5-ylmethyl)-amide]: the Ki is more than 1000 nM.
Same read-out and setting: then `Nc1ncc(-c2cc(F)cc(C(F)(F)F)c2)c(-c2c[nH]c(C(=O)NC(CO)c3ccccc3)c2)n1` (stereo not drawn) [III-a-105, 4-[2-Amino-5-(3-fluoro-5-trifluoromethyl-phenyl)-pyrimidin-4-yl]-1H-pyrrole-2-carboxylic acid (2-hydroxy-1-phenyl-ethyl)-amide], with 100 to 1000 nM; and `Cc1cnc(N)nc1-c1c[nH]c(C(=O)NCCc2cccnc2)c1` [III-a-107, 4-(2-Amino-5-methyl-pyrimidin-4-yl)-1H-pyrrole-2-carboxylic acid (2-pyridin-3′-yl-ethyl)-amide], with more than 1000 nM.
As to `CCCNC(=O)c1cc(-c2nc(Nc3ccccc3)ncc2C)c[nH]1` [III-a-111, 4-(5-Methyl-2-phenylamino-pyrimidin-4-yl)-1H-pyrrole-2-carboxylic acid propylamide], the Ki was less than 100 nM.
Take `Cc1cnc(Nc2ccccc2)nc1-c1c[nH]c(C(=O)NCCCc2ccccc2)c1` [III-a-112, 4-(5-Methyl-2-phenylamino-pyrimidin-4-yl)-1H-pyrrole-2-carboxylic acid (3-phenyl-propyl)-amide]: the Ki is less than 100 nM.
On the same count and under the same terms, then `CCNc1ncc(C)c(-c2c[nH]c(C(=O)NC3CC3)c2)n1` [III-a-114, 4-(2-Ethylamino-5-methyl-pyrimidin-4-yl)-1H-pyrrole-2-carboxylic acid cyclopropylamide], with more than 1000 nM; and `Cc1cnc(Nc2ccccc2)nc1-c1c[nH]c(C(=O)NCCN)c1` [III-a-120, 4-(5-Methyl-2-phenylamino-pyrimidin-4-yl)-1H-pyrrole-2-carboxylic acid (2-amino-ethyl)-amide], with 100 to 1000 nM.
Turning to `CCN(CC)CCNc1ncc(C)c(-c2c[nH]c(C(=O)NCc3ccc(F)c(F)c3)c2)n1` [III-a-132, 4-[2-(2-Diethylamino-ethylamino)-5-methyl-pyrimidin-4-yl]-1H-pyrrole-2-carboxylic acid 3i4-difluoro-benzylamide], the Ki is more than 1000 nM.
Still for that read-out and setting: under `COCc1cnc(Nc2ccccc2)nc1-c1c[nH]c(C(=O)NC(CO)c2ccccc2)c1` (stereo not drawn) [III-a-160, 4-(5-Methoxymethyl-2-phenylamino-pyrimidin-4-yl)-1H-pyrrole-2-carboxylic acid (2-hydroxy-1-phenyl-ethyl)-amide] stands 100 to 1000 nM; under `COCc1cnc(N)nc1-c1c[nH]c(C(=O)N[C@H](CO)c2ccccc2)c1` [III-a-161, 4-(2-Amino-5-methoxymethyl-pyrimidin-4-yl)-1H-pyrrole-2-carboxylic acid (2-hydroxy-1-phenyl-ethyl)-amide], 100 to 1000 nM.
On the same count and under the same terms, under `CCCNc1ncc(C)c(-c2c[nH]c(C(=O)NC(CO)c3ccccc3)c2)n1` (stereo not drawn) [III-a-163, 4-(5-Methyl-2-propylamino-pyrimidin-4-yl)-1H-pyrrole-2-carboxylic acid (2-hydroxy-1-phenyl-ethyl)-amide] stands less than 100 nM; under `CCNc1ncc(C)c(-c2c[nH]c(C(=O)NC(C)C(O)c3ccccc3)c2)n1` (stereo not drawn) [III-a-168, 4-(2-Ethylamino-5-methyl-pyrimidin-4-yl)-1H-pyrrole-2-carboxylic acid (2-hydroxy-1-methyl-2-phenyl-ethyl)-amide], more than 1000 nM.
Still for that read-out and setting: then `CCNc1ncc(C)c(-c2c[nH]c(C(=O)NCC(O)c3ccccc3)c2)n1` (stereo not drawn) [III-a-169, 4-(2-Ethylamino-5-methyl-pyrimidin-4-yl)-1H-pyrrole-2-carboxylic acid (2-hydroxy-2-phenyl-ethyl)-amide], with 100 to 1000 nM; and `CCNc1ncc(C)c(-c2c[nH]c(C(=O)NC(CO)C(O)c3ccccc3)c2)n1` (stereo not drawn) [III-a-170, 4-(2-Ethylamino-5-methyl-pyrimidin-4-yl)-1H-pyrrole-2-carboxylic acid (2-hydroxy-1-hydroxymethyl-2-phenyl-ethyl)-amide], with more than 1000 nM; and `CCNc1ncc(C)c(-c2c[nH]c(C(=O)NC(CO)C(O)c3ccccc3)c2)n1` (stereo not drawn) [III-a-171, 4-(2-Ethylamino-5-methyl-pyrimidin-4-yl)-1H-pyrrole-2-carboxylic acid (2-hydroxy-1-hydroxymethyl-2-phenyl-ethyl)-amide], with more than 1000 nM.
Regarding `CC(C(O)c1ccccc1)N(C)C(=O)c1cc(-c2ccnc(N)n2)c[nH]1` (stereo not drawn) [III-a-180, 4-(2-Amino-pyrimidin-4-yl)-1H-pyrrole-2-carboxylic acid (2-hydroxy-1-methyl-2-phenyl-ethyl)-methyl-amide], the Ki was more than 1000 nM.
Turning to `CCNc1ncc(C)c(-c2c[nH]c(C(=O)NC(CO)c3ccccc3F)c2)n1` (stereo not drawn) [III-a-192, 4-(2-Ethylamino-5-methyl-pyrimidin-4-yl)-1H-pyrrole-2-carboxylic acid [1-(2-fluoro-phenyl)-2-hydroxy-ethyl]-amide], the Ki is 100 to 1000 nM.
Regarding `CCONc1ncc(C)c(-c2c[nH]c(C(=O)N[C@H](CO)c3ccccc3)c2)n1` [III-a-195, 4-(2-Ethoxyamino-5-methyl-pyrimidin-4-yl)-1H-pyrrole-2-carboxylic acid (2-hydroxy-1-phenyl-ethyl)-amide], the Ki was less than 100 nM.
With `CCNc1ncc(C)c(-c2c[nH]c(C(=O)NC(C(C)=O)c3ccccc3)c2)n1` (stereo not drawn) [III-a-197, 4-(2-Ethylamino-5-methyl-pyrimidin-4-yl)-1H-pyrrole-2-carboxylic acid (2-oxo-1-phenyl-propyl)-amide], the Ki is more than 1000 nM.
With `CCOC(=O)NNc1ncc(C)c(-c2c[nH]c(C(=O)N[C@H](CO)c3ccccc3)c2)n1` [III-a-218, N′-{4-[5-(2-Hydroxy-1-phenyl-ethylcarbamoyl)-1H-pyrrol-3-yl]-5-methyl-pyrimidin-2-yl}-hydrazinecarboxylic acid ethyl ester], the Ki was in the range of 100 to 1000 nM.
Still for that read-out and setting: under `Cc1cnc(NCc2cccnc2)nc1-c1c[nH]c(C(=O)NC(CO)c2ccccc2)c1` (stereo not drawn) [III-a-219, 4-{5-Methyl-2-[(pyridin-3-ylmethyl)-amino]-pyrimidin-4-yl}-1H-pyrrole-2-carboxylic acid (2-hydroxy-1-phenyl-ethyl)-amide] stands less than 100 nM.
For the compound `Cc1cnc(NOCC2CC2)nc1-c1c[nH]c(C(=O)NC(CO)c2ccccc2)c1` (stereo not drawn) [III-a-220, 4-(2-Cyclopropylmethoxyamino-5-methyl-pyrimidin-4-yl)-1H-pyrrole-2-carboxylic acid (2-hydroxy-1-phenyl-ethyl)-amide], the Ki was less than 100 nM.
Still for that read-out and setting: then `Cc1cnc(Nc2ccon2)nc1-c1c[nH]c(C(=O)NC(CO)c2ccccc2)c1` (stereo not drawn) [III-a-221, 4-[2-(Isoxazol-3-ylamino)-5-methyl-pyrimidin-4-yl]-1H-pyrrole-2-carboxylic acid (2-hydroxy-1-phenyl-ethyl)-amide], with less than 100 nM; and `Cc1cnc(NN(C)C)nc1-c1c[nH]c(C(=O)N[C@H](CO)c2ccccc2)c1` [III-a-226, 4-[2-(N′,N′-Dimethyl-hydrazino)-5-methyl-pyrimidin-4-yl]-1H-pyrrole-2-carboxylic acid (2-hydroxy-1-(S)-phenyl-ethyl)-amide], with less than 100 nM.
Still for that read-out and setting: then `Cc1cc(Nc2ncc(C)c(-c3c[nH]c(C(=O)NC(CO)c4ccccc4)c3)n2)no1` (stereo not drawn) [III-a-229, 4-[5-Methyl-2-(5-methyl-isoxazol-3-ylamino)-pyrimidin-4-yl]-1H-pyrrole-2-carboxylic acid (2-hydroxy-1-phenyl-ethyl)-amide], with 100 to 1000 nM.
Still for that read-out and setting: under `CCC(CO)Nc1ncc(C)c(-c2c[nH]c(C(=O)NC(CO)c3cccc(C)c3)c2)n1` (stereo not drawn) [III-a-234, 4-[2-(1-Hydroxymethyl-propylamino)-5-methyl-pyrimidin-4-yl]-1H-pyrrole-2-carboxylic acid (2-hydroxy-1-m-tolyl-ethyl)-amide] stands less than 100 nM.
Regarding `Cc1cnc(NC(CO)CO)nc1-c1c[nH]c(C(=O)NC(CO)c2ccccc2)c1` (stereo not drawn) [III-a-235, 4-[2-(2-Hydroxy-1-hydroxymethyl-ethylamino)-5-methyl-pyrimidin-4-yl]-1H-pyrrole-2-carboxylic acid (2-hydroxy-1-phenyl-ethyl)-amide], the inhibitory constant (Ki) is less than 100 nM.
As to `CCC(CO)Nc1ncc(C)c(-c2c[nH]c(C(=O)NC(CO)c3ccccc3)c2)n1` (stereo not drawn) [III-a-236, 4-[2-(1-Hydroxymethyl-propylamino)-5-methyl-pyrimidin-4-yl]-1H-pyrrole-2-carboxylic acid (2-hydroxy-1-phenyl-ethyl)-amide], the Ki was less than 100 nM.
On to `Cc1cnc(NC2CC2C)nc1-c1c[nH]c(C(=O)NC(CO)c2ccccc2)c1` (stereo not drawn) [III-a-237, 4-[5-Methyl-2-(2-methyl-cyclopropylamino)-pyrimidin-4-yl]-1H-pyrrole-2-carboxylic acid (2-hydroxy-1-phenyl-ethyl)-amide], for which the Ki is less than 100 nM.
